Experimental data from patent US11752126B2, “Stable cannabinoid compositions” (Sino-German M&A Service GmbH, priority 2017, dated 2023).

Test: THC content over time in different stabilizing systems (FIG. 1)
Type: physicochemical
Excerpt: In the lower data set, the initial concentration of THC is reduced to 91% at day 93 with respect to the initial concentration of THC at day 0.

CCCCCc1cc(O)c2c(c1)OC(C)(C)[C@@H]1CCC(C)=C[C@@H]21 [THC, tetrahydrocannabinol]
evolution of the relative concentration of tetrahydrocannabinol (THC) (system including 1 weight percent tocopherol, over time): nearly flat over time
relative concentration of tetrahydrocannabinol (THC) (system including no tocopherol, day 93, with respect to the initial concentration of THC at day 0): 91%
